# Test results as given in publication PMC5654082 (Malaria Journal, 2017).
# Like-named read-outs stand apart in the source and are kept apart here. Marks after values point to notes of the source that are not given here.
# T1: human OCT1 (Homo sapiens, UniProt O15245)
# T1 construct: host or cells: HEK293, baculovirus transduction (CMV promoter), transient
# T1 sequence (O15245 1-554): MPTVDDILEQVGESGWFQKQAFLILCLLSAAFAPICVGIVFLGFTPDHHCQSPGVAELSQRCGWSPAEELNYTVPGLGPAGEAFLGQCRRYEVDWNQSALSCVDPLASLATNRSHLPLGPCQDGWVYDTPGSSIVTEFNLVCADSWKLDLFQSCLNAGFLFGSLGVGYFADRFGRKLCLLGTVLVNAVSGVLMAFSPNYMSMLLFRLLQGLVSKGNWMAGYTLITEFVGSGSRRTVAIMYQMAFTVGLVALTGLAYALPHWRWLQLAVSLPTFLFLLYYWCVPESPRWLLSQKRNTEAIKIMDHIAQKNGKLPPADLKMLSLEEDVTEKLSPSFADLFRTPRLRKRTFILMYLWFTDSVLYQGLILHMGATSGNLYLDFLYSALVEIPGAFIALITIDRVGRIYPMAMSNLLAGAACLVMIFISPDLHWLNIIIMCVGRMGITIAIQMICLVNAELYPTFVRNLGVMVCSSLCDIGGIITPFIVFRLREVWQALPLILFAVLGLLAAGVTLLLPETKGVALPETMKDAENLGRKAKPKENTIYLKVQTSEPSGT
# T2: human OCT2 (Homo sapiens, UniProt O15244)
# T2 construct: host or cells: HEK293, baculovirus transduction (CMV promoter), transient
# T2 sequence (O15244 1-555): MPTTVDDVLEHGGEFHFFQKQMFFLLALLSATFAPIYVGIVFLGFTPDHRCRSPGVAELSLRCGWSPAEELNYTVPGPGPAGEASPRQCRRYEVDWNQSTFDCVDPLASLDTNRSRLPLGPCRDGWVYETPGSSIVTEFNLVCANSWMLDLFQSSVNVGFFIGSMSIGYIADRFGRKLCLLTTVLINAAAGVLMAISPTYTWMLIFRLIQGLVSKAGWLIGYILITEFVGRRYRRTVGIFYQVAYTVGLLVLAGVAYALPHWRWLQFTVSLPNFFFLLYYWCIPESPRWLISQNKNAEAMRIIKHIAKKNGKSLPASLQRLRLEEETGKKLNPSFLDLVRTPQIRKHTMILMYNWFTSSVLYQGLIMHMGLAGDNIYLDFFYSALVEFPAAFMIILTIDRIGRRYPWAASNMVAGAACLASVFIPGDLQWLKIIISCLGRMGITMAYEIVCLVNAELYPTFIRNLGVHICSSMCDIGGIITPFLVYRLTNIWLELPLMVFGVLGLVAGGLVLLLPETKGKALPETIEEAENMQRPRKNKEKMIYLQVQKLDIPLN
# What was measured:
# [1] = cited from earlier work
# [2] = cited from earlier work; remark: listed apart in the source
# OCT1 = test system: OCT1; design: method as in PMID 25914645; conditions: read-out: Absolute IC50 for OCT1; cited from earlier work
# human OCT1 = target: T1, human OCT1; experiment: Inhibition of OCT1-mediated ASP uptake in transduced HEK293 cells; assay type: cell-based; conditions: 50 µM anti-malarial, 10 µM ASP, 10 min, 37 °C; relative to solvent control fixed at 100%
# Protocol: (§1) HEK293 cells were modified to transiently express (a combination of) human OCT1, OCT2, MATE1, MATE2-K, or eYFP. Briefly, cDNA of the respective genes was cloned downstream of a CMV promoter into a baculovirus, of which passage three was used to transduce HEK293 cells. These cells were seeded in poly-D-lysine coated 24- or 96-wells plates and grown in a 37 °C incubator at 5% CO2. Growth was initiated at ~ 25% confluency using 375 or 125 μL cell and complete medium (DMEM + GlutaMAX™-I supplemented with 10% fetal bovine serum) suspension per well, respectively. After 24 h, cells were transduced with 30 µL virus (10 µL virus + 20 µL complete medium in case of 96-wells plates) or 2 × 15 µL virus for cells that required simultaneous expression of two transporters. Finally, 195 µL sodium butyrate (45 µL for 96-wells plates) was added to a final concentration of 2 mM to enhance protein expression.
# AMO (10 mM), ASP (1 mM), CQ (10 mM), PQ (10 mM) and PG (10 mM) were dissolved in MilliQ water. ART (10 mM), ATO (10 mM), DHA (10 mM), LUM (10 mM), MQ (10 mM), NMQ (20 mM), PYR (10 mM), QN (10 mM) were dissolved in DMSO. All compound stocks were stored at − 20 °C. Inhibition of OCT1- or OCT2-mediated ASP uptake by anti-malarials was performed in poly-D-lysine coated 96-wells plates 2 or 3 days following HEK293 cell transduction. In short, cells were washed with 125 µL 37 °C HBSS containing 10 mM HEPES, pH 7.4. Then, a 50 µL mixture of ASP (10 µM) and anti-malarial compound (25, 50 or 100 µM) in HBSS buffer (pH 7.4) was added to each well and incubated for 10 min at 37 °C. ASP transport was stopped by washing with 125 µL ice-cold HBSS-HEPES buffer supplemented with 0.5% BSA. Following a second wash with 125 µL ice-cold HBSS-HEPES buffer, cells were lysed with 125 µL 1 M NaOH and ASP was excited at a wavelength of 485 nm and fluorescence was detected at an emission wavelength of 535 nm using the Victor X3 multimode plate reader.
# (§2) For each compound, a range of seven concentrations was used to determine the concentration at which ASP uptake was inhibited half maximally (IC50). At least three independent experiments (4 for QN) were performed for each drug in triplicate as described above. Inhibition curves were plotted by nonlinear regression analyses of the data using GraphPad Prism version 5.03. […] To generate the final dose–response inhibition curve per anti-malarial, percentage of uptake was averaged for each drug concentration per experiment and the resulting mean ± SEM corresponding to three or four independent experiments were plotted.
# human OCT2 [3] = target: T2, human OCT2; experiment: Inhibition of OCT2-mediated ASP uptake in transduced HEK293 cells; assay type: cell-based; conditions: 10 µM ASP, 10 min, 37 °C
# Protocol: as §1, with “Growth was initiated at ~ 25% confluency using 375 or 125 μL cell and complete medium (DMEM + GlutaMAX™-I supplemented with 10% fetal bovine serum) suspension per well, respectively.” left out
# AMO (10 mM), ASP (1 mM), CQ (10 mM), PQ (10 mM) and PG (10 mM) were dissolved in MilliQ water. ART (10 mM), ATO (10 mM), DHA (10 mM), LUM (10 mM), MQ (10 mM), NMQ (20 mM), PYR (10 mM), QN (10 mM) were dissolved in DMSO. All compound stocks were stored at − 20 °C. Inhibition of OCT1- or OCT2-mediated ASP uptake by anti-malarials was performed in poly-D-lysine coated 96-wells plates 2 or 3 days following HEK293 cell transduction. In short, cells were washed with 125 µL 37 °C HBSS containing 10 mM HEPES, pH 7.4. […] ASP transport was stopped by washing with 125 µL ice-cold HBSS-HEPES buffer supplemented with 0.5% BSA.
# as §2, with “above.” for “above. Inhibition curves were plotted by nonlinear regression analyses of the data using GraphPad Prism version 5.03.”
# [4] = Maximum plasma concentration from in vivo pharmacokinetic studies after therapeutic dosing; conditions: human, the literature Cmax (ng/mL) of Table 2 expressed in µM
# Description: As Cmax the (geometric) mean or median maximum plasma concentrations obtained from previous in vivo pharmacokinetic studies after therapeutic dosing was used.
# OCT2 = test system: OCT2; design: method as in PMID 20053795; conditions: 50 µM; HeLa cells, metformin as substrate; cited from earlier work
# human OCT2 [5] = target: T2, human OCT2; design: method as in PMID 21544077; conditions: HEK293 cells stably expressing human OCT2; read-out: Ki for OCT2-mediated MET uptake; cited from earlier work
# [6] = substrate: [H]/N=C(\N/C(=N/[H])Nc1ccc(Cl)cc1)NC(C)C; experiment: OCT2-mediated cellular import in transduced HEK293 cells (LC-MS/MS); assay type: cell-based, human; conditions: other: 1 min incubation, 37 °C, 2.0–16 µM, pH 7.4
# Protocol: HEK293 cells were modified to transiently express (a combination of) human OCT1, OCT2, MATE1, MATE2-K, or eYFP. Briefly, cDNA of the respective genes was cloned downstream of a CMV promoter into a baculovirus, of which passage three was used to transduce HEK293 cells. These cells were seeded in poly-D-lysine coated 24- or 96-wells plates and grown in a 37 °C incubator at 5% CO2. Growth was initiated at ~ 25% confluency using 375 or 125 μL cell and complete medium (DMEM + GlutaMAX™-I supplemented with 10% fetal bovine serum) suspension per well, respectively. […]
# HEK293 cells were seeded in 24-wells poly-D-lysine coated plates and transduced the subsequent day with OCT1 or OCT2 as described above. […] Following a second wash with 400 µL ice-cold HBSS-HEPES buffer, cells were lysed with 200 µL 50% (v/v) MeOH and 0.1% (v/v) formic acid (HCOOH) in water and samples were sent for quantification by mass spectrometry analysis (see “LC–MS/MS quantification of anti-malarials” section). […]
# The affinity (KM) and maximum transport rate (Vmax) for OCT1 and OCT2 of PG were determined by analysing concentration-dependent uptake data from three independent experiments.
# Import and export of PG and cycloguanil (CG) was assessed by single and double transduced HEK293 cells. […]
molecule,measurement,setting,value
"O=C1Nc2ccc(Cl)cc2[C@@](C#CC2CC2)(C(F)(F)F)O1 [EFV, efavirenz]",Maximum plasma concentration,[1],13 µM
same,Unbound in plasma,[2],about 0.22%
same,Unbound maximum plasma concentration,[2],0.03 µM
same,IC50,OCT1,22 µM
"CCc1nc(N)nc(N)c1-c1ccc(Cl)cc1 [Pyrimethamine, pyrimethamine]",Relative ASP uptake (OCT1-mediated),human OCT1,59 ± 6%
same,IC50,human OCT2 [3]; seven concentrations,1.6 µM
same,Relative ASP uptake (OCT2-mediated),"human OCT2 [3]; 50 µM anti-malarial, relative to solvent control fixed at 100%",6 ± 2%
same,Cmax,[4],1.1 µM
same,Cmax,"[1]; patients with acute falciparum malaria, (geometric) mean or median",281^e [48] ng/mL
same,Unbound fraction,[2],0.06 [49]
same,Reduction of OCT2 activity,OCT2,60%
same,Ki,human OCT2 [5],10 µM
"human OCT2 (Homo sapiens) (protein, host or cells: HEK293, baculovirus transduction (CMV promoter), transient) MPTTVDDVLEHGGEFHFFQKQMFFLLALLSATFAPIYVGIVFLGFTPDHRCRSPGVAELSLRCGWSPAEELNYTVPGPGPAGEASPRQCRRYEVDWNQSTFDCVDPLASLDTNRSRLPLGPCRDGWVYETPGSSIVTEFNLVCANSWMLDLFQSSVNVGFFIGSMSIGYIADRFGRKLCLLTTVLINAAAGVLMAISPTYTWMLIFRLIQGLVSKAGWLIGYILITEFVGRRYRRTVGIFYQVAYTVGLLVLAGVAYALPHWRWLQFTVSLPNFFFLLYYWCIPESPRWLISQNKNAEAMRIIKHIAKKNGKSLPASLQRLRLEEETGKKLNPSFLDLVRTPQIRKHTMILMYNWFTSSVLYQGLIMHMGLAGDNIYLDFFYSALVEFPAAFMIILTIDRIGRRYPWAASNMVAGAACLASVFIPGDLQWLKIIISCLGRMGITMAYEIVCLVNAELYPTFIRNLGVHICSSMCDIGGIITPFLVYRLTNIWLELPLMVFGVLGLVAGGLVLLLPETKGKALPETIEEAENMQRPRKNKEKMIYLQVQKLDIPLN",Km,[6],9.0 µM
